# Experiments:
# [1] = test system: men and women participants; assay: Average heart rate (HR) along the experiment, Example 2; format: in vivo, human; conditions: men and women together; FIG. 5, p<0.0001
# Procedure: (§1) Sixty-four participants (35 women) with an average age of 27.34 (SD 4.65), half participated in the HEX group and the other half in the PLACEBO group. The study was conducted in Ra'anana, Israel in a rented office using a laptop computer.
# (§2) Participants came in separately into the Ra'anana office, a research assistant (RA) welcomed them. After a short brief, participants were introduced with a bottle of liquid and were required to smell the bottle for 1 minute (with the instruction to breath normally). After being exposed to the smell, the RA explained about the three tasks (memory, attention, public speaking—the stressor). Participants reported their stress level before and after each assignment (7 times). Just before the last task, participants were informed that this task was canceled and then were asked to report their stress level for the last time.
# male subjects [2] = assay: Stroop test (attention, cognitive performance), Example 1; format: in vivo, human; conditions: FIG. 2
# Procedure: (§3) • 30 male subjects, 15 using Olfactory Blue (OB—Hexadecanal) and 15 with placebo. […] Equipment • Computer/laptop with test script and cognitive tests • HR wrist monitor and Central unit • Video camera • 2×50 ml identical bottles—one with OB (solvent+Hexadecanal) and one only with dipropylene glycol (DPG) Goals and KPIs.
# • Subjects—men only [mean age: 24.97 (SD=1.92)]. • An isolated office space (to avoid subject distraction) is prepared with a table and chair. • The computer, Modify standalone and the video recording are positioned and prepared. Test Running • Subject is introduced and asked to take place in front of computer • Experimenter briefs the subject on the test procedure in general • Subject fills in a consent form (including GDPR consent) and signs the receipt for the money (see form in annex) • Subject fills in personal data on the computer • Experimenter presents the scent bottle (OB or Placebo) given to them by an assistant (who records which bottle has been given) to the subject to smell five sniffs within one minute (2% in the bottle). • Subject is asked about their subjective stress level on a scale between 0 (no stress at all) to 10 (extreme stress)—questionnaire on the computer • Experimenter completes the briefing and introduce 3 assignments to the participants: a memory task, a Stroop task and the stress manipulation—subject will have to give a 5 min lecture to an audience on one of three given topics—stressor. • Subject starts the experiment by following instructions on the computer: 1. […] End of experiment • Experimenter debriefs subject—asks for general comments and feeling • Subjective stress level • End of test Measurements The following physiological measurements are recorded: 1. […] The following psychological/subjective measurements are recorded: 2. Memory test—the ability to remember a series of words seen one after the other and after conducting several simple mathematical tasks; scored by counting number of words correctly remembered. […] Subjective stress level—the stress level the subject feels at that moment; recorded on the computer.
# [3] = test system: mouse OR37 receptor subtype B; conditions: Klein et al [15]; cited from earlier work
# [4] = test system: men and women participants; assay: Subjective stress level reports, men and women, Example 2; format: in vivo, human; conditions: two-way ANOVA, gender and fragrance condition; F(1,56)=5.1, p=0.03; no interaction; HEX vs PLACEBO; FIG. 4
# Procedure: as §1, §2
# The first stress report was given pre-manipulation; therefore, it may shed light upon the general stress level of the participants. Mean score for first stress report was 3.32 (SD 1.68) for men and 2.59 (SD 1.76) for women.
# A two-way ANOVA was conducted with average stress (measures 2-6) as a dependent variable and gender and fragrance condition as the independent variables. […] Main effect for fragrance was also significant, F(1,56)=5.1, p=0.03. No interaction was found (F<0.1). […]
# male subjects [5] = assay: Memory test (free recall), Example 1; format: in vivo, human; conditions: FIG. 3
# Procedure: as §3
# (§4) • Subjects—men only [mean age: 24.97 (SD=1.92)]. • An isolated office space (to avoid subject distraction) is prepared with a table and chair. • The computer, Modify standalone and the video recording are positioned and prepared. […] End of experiment • Experimenter debriefs subject—asks for general comments and feeling • Subjective stress level • End of test Measurements The following physiological measurements are recorded: 1. […] The following psychological/subjective measurements are recorded: 2. Memory test—the ability to remember a series of words seen one after the other and after conducting several simple mathematical tasks; scored by counting number of words correctly remembered. […] Subjective stress level—the stress level the subject feels at that moment; recorded on the computer.
# [6] = test system: men and women participants; assay: Memory test (free recall), Example 2; format: in vivo, human; conditions: HEX vs placebo group
# Procedure: as §1, §2
# [7] = test system: men and women participants; assay: Attention test (Stroop test), Example 2; format: in vivo, human; conditions: HEX vs placebo group
# Procedure: as §1, §2
# male subjects [8] = assay: Subjective stress level reports under a lecture stressor, Example 1; format: in vivo, human; conditions: scale 0-10, FIG. 1
# Procedure: For experiments 0.083M of Hexadecanal (HEX) dissolved in propylene glycol was used. Heating it for a few minutes eases the process (37° C. is sufficient). The mixture was aliquoted into daily portions, such that we thawed a daily serving prior to experiments. Participants were exposed to 100 ul of 0.083M HEX in 10 consecutive sniffs from a jar, and then taped a band aid with 30 ul on the upper lip. The band aid stayed to assure exposure throughout the experiment. Since propylene glycol has an odor, we used a masking odor.
# • 30 male subjects, 15 using Olfactory Blue (OB—Hexadecanal) and 15 with placebo. […]
# as §4, with “computer. […]” for “computer.”
# [9] = test system: mouse OR37 receptor subtype C; conditions: Klein et al [15]; cited from earlier work
# [10] = test system: mouse OR37 receptor subtype A; conditions: Klein et al [15]; cited from earlier work
smiles,measurement,setting,value
"CCCCCCCCCCCCCCCC=O [HEX, Hexadecanal]",average HR vs placebo group,[1],lower
same,"Stroop test number of errors, blue vs placebo",male subjects [2],No differences
same,"Stroop test reaction time, blue vs placebo",male subjects [2],No differences
same,cognitive performance relative to placebo,male subjects [2]; as evidenced by the Stroop test,does not affect cognitive performance
same,activation of OR37 subtype B,[3],activated
same,"average stress (measures 2-6), main effect for fragrance",[4],significant
same,"free recall assignment, difference between conditions",male subjects [5],no differences
same,"memory (free recall), difference between groups",[6],did not differ
same,"attention (Stroop test), difference between groups",[7],did not differ
same,"subjective stress report, difference between groups","male subjects [8]; stress0 (baseline) and stress4 (end, after being told there will be no lecture)",no difference
same,subjective stress report vs Placebo group,"male subjects [8]; stress1, stress2, stress3 (after assignments and smelling, after memory test, after Stroop test), 15 vs 15 men, p<0.01",significantly lower degree
CCCCCCCCCCCCCCCCC=O [heptadecanal],activation of OR37 subtype C,[9],activated
CCCCCCCCCCCCCCC=O [pentadecanal],activation of OR37 subtype A,[10],activated
